Results published in the supplement of paper PMC13207355.

Experiments:
Conditions in all cases: exposure time: 72 h
FT3469 [1] = normal neural stem cell line; experiment: phenotypic distance (Euclidean, principal components) from DMSO controls (arbitrary units); higher = stronger morphological change
E34 [2] = patient-derived glioblastoma stem cells of proneural subtype; experiment: as above
E21 [3] = patient-derived glioblastoma stem cells of mesenchymal subtype; experiment: as above
E28 [4] = patient-derived glioblastoma stem cells of classical subtype; experiment: as above
E13 [5] = patient-derived glioblastoma stem cells of classical subtype; experiment: as above
E57 [6] = patient-derived glioblastoma stem cells of mesenchymal subtype; experiment: as above
E31 [7] = patient-derived glioblastoma stem cells of proneural subtype; experiment: as above
FT3469 [8] = experiment: surviving fraction (nuclei count normalised to DMSO); higher = more cells surviving (less toxic)
E34 [9] = experiment: as above
E21 [10] = experiment: as above
E28 [11] = experiment: as above
E13 [12] = experiment: as above
E57 [13] = experiment: as above
E31 [14] = experiment: as above
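Throughout, for phenotypic distance (Euclidean, principal components) from DMSO controls: cell Painting imaging in 384-well plates, CellProfiler features reduced to at least 20 principal components, Euclidean distance versus same-plate DMSO vehicle wells (0.1% v/v), median over six images per well.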
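Throughout, for surviving fraction (nuclei count normalised to DMSO): nuclei counted by high-content imaging of Hoechst-stained cells in laminin-coated 384-well plates, relative to 0.1% DMSO vehicle wells, with staurosporine as cell-death control.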

C[C@H]1O[C@@H](O[C@H]2[C@@H](O)C[C@H](O[C@H]3[C@@H](O)C[C@H](O[C@H]4CC[C@@]5(C)[C@H](CC[C@@H]6[C@@H]5C[C@@H](O)[C@]5(C)[C@@H](C7=CC(=O)OC7)CC[C@]65O)C4)O[C@@H]3C)O[C@@H]2C)C[C@H](O)[C@@H]1O [Digoxin]
Conditions	phenotypic distance	surviving fraction
E13 [5], 4.1 nM	2.96	–
E13 [5], 12.3 nM	3.64	–
E13 [5], 37 nM	5.02	–
E13 [5], 111.1 nM	5.57	–
E13 [5], 333.3 nM	6.42	–
E13 [5], 1000 nM	6.06	–
E13 [5], 3000 nM	6.15	–
E13 [12], 4.1 nM	–	0.795
E13 [12], 12.3 nM	–	0.448
E13 [12], 37 nM	–	0.349
E13 [12], 111.1 nM	–	0.348
E13 [12], 333.3 nM	–	0.272
E13 [12], 1000 nM	–	0.306
E13 [12], 3000 nM	–	0.266
E21 [3], 4.1 nM	2.11	–
E21 [3], 12.3 nM	3.25	–
E21 [3], 37 nM	3.77	–
E21 [3], 111.1 nM	6.27	–
E21 [3], 333.3 nM	6.66	–
E21 [3], 1000 nM	5.99	–
E21 [3], 3000 nM	6.15	–
E21 [10], 4.1 nM	–	0.854
E21 [10], 12.3 nM	–	0.676
E21 [10], 37 nM	–	0.497
E21 [10], 111.1 nM	–	0.368
E21 [10], 333.3 nM	–	0.269
E21 [10], 1000 nM	–	0.266
E21 [10], 3000 nM	–	0.218
E28 [4], 4.1 nM	1	–
E28 [4], 12.3 nM	1.47	–
E28 [4], 37 nM	2.1	–
E28 [4], 111.1 nM	2.57	–
E28 [4], 333.3 nM	2.97	–
E28 [4], 1000 nM	3.74	–
E28 [4], 3000 nM	2.92	–
E28 [11], 4.1 nM	–	0.839
E28 [11], 12.3 nM	–	0.85
E28 [11], 37 nM	–	0.696
E28 [11], 111.1 nM	–	0.628
E28 [11], 333.3 nM	–	0.491
E28 [11], 1000 nM	–	0.452
E28 [11], 3000 nM	–	0.332
E31 [7], 4.1 nM	2.21	–
E31 [7], 12.3 nM	3.02	–
E31 [7], 37 nM	4.38	–
E31 [7], 111.1 nM	5.51	–
E31 [7], 333.3 nM	5.08	–
E31 [7], 1000 nM	4.94	–
E31 [7], 3000 nM	4.77	–
E31 [14], 4.1 nM	–	0.87
E31 [14], 12.3 nM	–	0.721
E31 [14], 37 nM	–	0.47
E31 [14], 111.1 nM	–	0.403
E31 [14], 333.3 nM	–	0.36
E31 [14], 1000 nM	–	0.356
E31 [14], 3000 nM	–	0.252
E34 [2], 4.1 nM	1.18	–
E34 [2], 12.3 nM	3.09	–
E34 [2], 37 nM	4.76	–
E34 [2], 111.1 nM	5.12	–
E34 [2], 333.3 nM	3.77	–
E34 [2], 1000 nM	3.7	–
E34 [2], 3000 nM	5.72	–
E34 [9], 4.1 nM	–	0.979
E34 [9], 12.3 nM	–	0.745
E34 [9], 37 nM	–	0.632
E34 [9], 111.1 nM	–	0.539
E34 [9], 333.3 nM	–	0.466
E34 [9], 1000 nM	–	0.394
E34 [9], 3000 nM	–	0.293
E57 [6], 4.1 nM	1.42	–
E57 [6], 12.3 nM	3.76	–
E57 [6], 37 nM	5.52	–
E57 [6], 111.1 nM	5.37	–
E57 [6], 333.3 nM	6.22	–
E57 [6], 1000 nM	6.34	–
E57 [6], 3000 nM	6.45	–
E57 [13], 4.1 nM	–	1
E57 [13], 12.3 nM	–	0.74
E57 [13], 37 nM	–	0.392
E57 [13], 111.1 nM	–	0.27
E57 [13], 333.3 nM	–	0.207
E57 [13], 1000 nM	–	0.166
E57 [13], 3000 nM	–	0.112
FT3469 [1], 4.1 nM	2.61	–
FT3469 [1], 12.3 nM	3.2	–
FT3469 [1], 37 nM	4.1	–
FT3469 [1], 111.1 nM	3.74	–
FT3469 [1], 333.3 nM	3.18	–
FT3469 [1], 1000 nM	4.16	–
FT3469 [1], 3000 nM	3.8	–
FT3469 [8], 4.1 nM	–	0.79
FT3469 [8], 12.3 nM	–	0.652
FT3469 [8], 37 nM	–	0.628
FT3469 [8], 111.1 nM	–	0.686
FT3469 [8], 333.3 nM	–	0.684
FT3469 [8], 1000 nM	–	0.577
FT3469 [8], 3000 nM	–	0.566
